From ChEMBL document CHEMBL1201862, “PubChem BioAssay data set” (2004)
The source made the active and inactive calls.

How the values were obtained:
[1] = biological target: Beta-2 adrenergic receptor (Homo sapiens, UniProt P07550); experiment: beta2AR agonists driving receptor internalization, dose response, cell-based, FAP fluorogen, flow cytometry, cherry pick 1 (AID 588763); assay type: functional
[2] = Fluorescence polarization-based biochemical high throughput dose response assay for activators of the Protein Kinase A-R2B (PKA-R2B) complex. [Related pubchem assays (depositor defined):AID504700, AID504704, AID504796, AID504797]
[3] = Fluorescence polarization-based biochemical high throughput dose response assay for activators of the Protein Kinase A-R1A (PKA-R1A) complex. [Related pubchem assays (depositor defined):AID504704, AID504707, AID504799, AID504800]
[4] = Shn3 3'UTR reporter inhibitors, dose response, cell-based, Clone20 osteoblasts, firefly luciferase, cherry-picked (AID 624132); assay type: functional;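 further: firefly luciferase luminescence from reporter carrying the Shn3 3'UTR in osteoblasts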
[5] = HepG2 cell cytotoxicity, dose response, cytotoxicity control for Shn3 inhibitor project, CellTiter-Glo, cherry-picked (AID 624134); assay type: functional, cell-based
[6] = inhibitors of clade B AD8 Env fusion, dose response, cell-based, cherry-pick (AID 652062); assay type: functional;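 further: luciferase signal from cell-cell fusion driven by HIV-1 clade B AD8 Env; potency is for inhibitors of fusion seen as a drop in luminescence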
Paired box protein Pax-8 = Paired box protein Pax-8 (Homo sapiens, UniProt Q06710); experiment: inhibitors of PAX8-driven TPO luciferase reporter, dose response, RMG-I cells, cherry-pick (AID 687027); assay type: functional, cell-based;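 further: luciferase reporter driven by Pax8 target thyroperoxidase promoter measured by SteadyGlo luminescence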
Paired box protein Pax-8, sequence (Q06710 whole entry): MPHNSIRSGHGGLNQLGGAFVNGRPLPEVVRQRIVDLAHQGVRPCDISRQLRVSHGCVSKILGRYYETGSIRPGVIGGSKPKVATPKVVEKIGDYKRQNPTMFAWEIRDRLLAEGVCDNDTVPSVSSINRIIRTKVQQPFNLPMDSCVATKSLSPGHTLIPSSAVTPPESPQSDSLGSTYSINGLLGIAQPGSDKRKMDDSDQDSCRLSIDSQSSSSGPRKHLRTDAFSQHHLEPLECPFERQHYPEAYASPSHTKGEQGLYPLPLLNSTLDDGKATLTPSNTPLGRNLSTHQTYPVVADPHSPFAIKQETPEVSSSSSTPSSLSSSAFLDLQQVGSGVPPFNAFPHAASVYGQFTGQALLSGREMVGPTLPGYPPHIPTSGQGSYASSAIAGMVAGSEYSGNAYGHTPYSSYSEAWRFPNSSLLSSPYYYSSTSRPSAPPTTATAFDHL

[7] = control 3'UTR Renilla luciferase suppression, dose response, counter-screen for Shn3 inhibitor project, cell-based, Clone20-Shn3RL, cherry-picked (AID 624133); assay type: functional
[8] = off-target signal loss in HeLa-CEM21 co-culture – HeLa F-luc CTL cells, cherry-picked, counter-screen for HIV-1 Env fusion inhibitor project, dose response (AID 652040); assay type: functional, cell-based;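 further: potency for signal decrease marking cytotoxic or nonspecific inhibition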
[9] = ZM109 Env clade C HIV-1 fusion inhibitors, dose response, HeLa effector, CEM target cells, luciferase, cherry-pick (AID 652058); assay type: functional, cell-based
[10] = inhibitors of SNCA 5'UTR-driven reporter translation, confirmation, H4 neuroglioma cells, luminescence (AID 1988); assay type: functional, cell-based
[11] = biological target: Luciferin 4-monooxygenase (Photuris pensylvanica, UniProt Q27757); experiment: firefly luciferase enzyme inhibitors, dose response, counter-screen for HSF-1 reporter inhibitor project, biochemical, Cell Titer Glo, luminescence, cherry-picks (AID 588847)
Luciferin 4-monooxygenase, sequence (Q27757 whole entry): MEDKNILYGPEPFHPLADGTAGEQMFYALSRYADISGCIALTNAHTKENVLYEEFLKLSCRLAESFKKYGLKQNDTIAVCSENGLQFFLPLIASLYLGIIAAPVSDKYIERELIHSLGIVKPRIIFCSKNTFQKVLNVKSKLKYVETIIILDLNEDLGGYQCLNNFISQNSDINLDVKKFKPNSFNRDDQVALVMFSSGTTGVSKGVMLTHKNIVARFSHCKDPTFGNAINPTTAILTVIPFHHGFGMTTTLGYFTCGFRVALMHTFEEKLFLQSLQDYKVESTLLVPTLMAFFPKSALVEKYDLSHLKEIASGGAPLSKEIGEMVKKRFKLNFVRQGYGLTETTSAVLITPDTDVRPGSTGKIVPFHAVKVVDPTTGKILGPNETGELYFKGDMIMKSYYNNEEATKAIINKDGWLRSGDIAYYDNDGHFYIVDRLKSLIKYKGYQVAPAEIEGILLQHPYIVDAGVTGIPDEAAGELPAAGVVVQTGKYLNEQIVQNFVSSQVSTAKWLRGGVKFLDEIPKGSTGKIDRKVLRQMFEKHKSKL

[12] = Luminescence Cell-Based Dose Response HTS to Identify Inhibitors of 5'UTR Stem-Loop Driven Prion Protein mRNA Translation in H4 Neuroglioblastoma Cells. [Related pubchem assays: 1827 (Project Summary), 1813 (Primary HTS)]; assay type: functional
[13] = biological target: Heat shock protein HSP 90-alpha (Homo sapiens, UniProt P07900); experiment: Luminescence-based dose response biochemical high throughput screening assay for inhibitors of the Heat Shock Protein 90 (HSP90). [Related pubchem assays: 1831 (Summary AID.), 1846 (Confirmation screen.), 1789 (Primary screen.)]
[14] = inhibitors of firefly luciferase expression or activity, dose response, H4 neuroglioma cells, luminescence (AID 1990); assay type: functional, cell-based
[15] = inhibitors of HIV Env-driven cell fusion, dose response, cherry-pick (AID 652057); assay type: functional, cell-based
[16] = biological target: T1, Heat shock factor protein 1 (Mus musculus, UniProt P38532); experiment: inhibition of MG132-induced HSE-luciferase signal, confirmation, cell-based, NIH3T3, luminescence, dose retest (AID 2382); assay type: functional;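 further: NIH3T3 fibroblasts with HSF1-driven luciferase reporter stressed by proteasome inhibitor MG132; luminescence from HSF1-driven luciferase expression after 8 hours of MG132 stress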
T1 sequence (P38532 whole entry): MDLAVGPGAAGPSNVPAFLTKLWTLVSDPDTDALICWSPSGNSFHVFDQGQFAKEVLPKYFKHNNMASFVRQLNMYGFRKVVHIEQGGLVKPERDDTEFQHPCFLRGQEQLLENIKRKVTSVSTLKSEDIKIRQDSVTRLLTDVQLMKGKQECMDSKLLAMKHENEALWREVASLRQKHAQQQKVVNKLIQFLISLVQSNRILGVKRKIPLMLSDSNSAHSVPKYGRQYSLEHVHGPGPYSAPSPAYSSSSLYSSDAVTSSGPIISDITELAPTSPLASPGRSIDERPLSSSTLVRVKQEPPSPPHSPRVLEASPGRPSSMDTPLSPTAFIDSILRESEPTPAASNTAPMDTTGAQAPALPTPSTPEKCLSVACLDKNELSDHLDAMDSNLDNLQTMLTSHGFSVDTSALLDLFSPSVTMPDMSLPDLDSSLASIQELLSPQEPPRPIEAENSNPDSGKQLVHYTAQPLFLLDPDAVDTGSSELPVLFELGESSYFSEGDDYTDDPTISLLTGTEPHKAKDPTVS

[17] = non-specific cell cytotoxicity, dose response, cytotoxicity control for PAX8 inhibitor project, plate reader, dry powder samples (AID 743021); assay type: functional, cell-based
[18] = CEM21 lymphoblast cell cytotoxicity, dose response, cytotoxicity control for viral fusion inhibitor project, CellTiter-Glo luminescence, cherry-picked (AID 652042); assay type: functional, cell-based;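 further: potency for signal decrease meaning cytotoxicity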
[19] = MC4R antagonists, dose response, counter-screen for LGR2 antagonist project, cell-based, plate reader, cherry pick (AID 743444); assay type: functional;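 further: transfected HEK 293 cells stimulated with alpha-MSH peptide; potency of inhibitors of the alpha-MSH evoked signal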
[20] = biological target: T2, Voltage-gated N-type calcium channel alpha-1B subunit/Amyloid beta A4 precursor protein-binding family A member 1 (Homo sapiens, UniProt Q00975+Q02410); assay type: protein assay
T2 sequence (Q00975 whole entry): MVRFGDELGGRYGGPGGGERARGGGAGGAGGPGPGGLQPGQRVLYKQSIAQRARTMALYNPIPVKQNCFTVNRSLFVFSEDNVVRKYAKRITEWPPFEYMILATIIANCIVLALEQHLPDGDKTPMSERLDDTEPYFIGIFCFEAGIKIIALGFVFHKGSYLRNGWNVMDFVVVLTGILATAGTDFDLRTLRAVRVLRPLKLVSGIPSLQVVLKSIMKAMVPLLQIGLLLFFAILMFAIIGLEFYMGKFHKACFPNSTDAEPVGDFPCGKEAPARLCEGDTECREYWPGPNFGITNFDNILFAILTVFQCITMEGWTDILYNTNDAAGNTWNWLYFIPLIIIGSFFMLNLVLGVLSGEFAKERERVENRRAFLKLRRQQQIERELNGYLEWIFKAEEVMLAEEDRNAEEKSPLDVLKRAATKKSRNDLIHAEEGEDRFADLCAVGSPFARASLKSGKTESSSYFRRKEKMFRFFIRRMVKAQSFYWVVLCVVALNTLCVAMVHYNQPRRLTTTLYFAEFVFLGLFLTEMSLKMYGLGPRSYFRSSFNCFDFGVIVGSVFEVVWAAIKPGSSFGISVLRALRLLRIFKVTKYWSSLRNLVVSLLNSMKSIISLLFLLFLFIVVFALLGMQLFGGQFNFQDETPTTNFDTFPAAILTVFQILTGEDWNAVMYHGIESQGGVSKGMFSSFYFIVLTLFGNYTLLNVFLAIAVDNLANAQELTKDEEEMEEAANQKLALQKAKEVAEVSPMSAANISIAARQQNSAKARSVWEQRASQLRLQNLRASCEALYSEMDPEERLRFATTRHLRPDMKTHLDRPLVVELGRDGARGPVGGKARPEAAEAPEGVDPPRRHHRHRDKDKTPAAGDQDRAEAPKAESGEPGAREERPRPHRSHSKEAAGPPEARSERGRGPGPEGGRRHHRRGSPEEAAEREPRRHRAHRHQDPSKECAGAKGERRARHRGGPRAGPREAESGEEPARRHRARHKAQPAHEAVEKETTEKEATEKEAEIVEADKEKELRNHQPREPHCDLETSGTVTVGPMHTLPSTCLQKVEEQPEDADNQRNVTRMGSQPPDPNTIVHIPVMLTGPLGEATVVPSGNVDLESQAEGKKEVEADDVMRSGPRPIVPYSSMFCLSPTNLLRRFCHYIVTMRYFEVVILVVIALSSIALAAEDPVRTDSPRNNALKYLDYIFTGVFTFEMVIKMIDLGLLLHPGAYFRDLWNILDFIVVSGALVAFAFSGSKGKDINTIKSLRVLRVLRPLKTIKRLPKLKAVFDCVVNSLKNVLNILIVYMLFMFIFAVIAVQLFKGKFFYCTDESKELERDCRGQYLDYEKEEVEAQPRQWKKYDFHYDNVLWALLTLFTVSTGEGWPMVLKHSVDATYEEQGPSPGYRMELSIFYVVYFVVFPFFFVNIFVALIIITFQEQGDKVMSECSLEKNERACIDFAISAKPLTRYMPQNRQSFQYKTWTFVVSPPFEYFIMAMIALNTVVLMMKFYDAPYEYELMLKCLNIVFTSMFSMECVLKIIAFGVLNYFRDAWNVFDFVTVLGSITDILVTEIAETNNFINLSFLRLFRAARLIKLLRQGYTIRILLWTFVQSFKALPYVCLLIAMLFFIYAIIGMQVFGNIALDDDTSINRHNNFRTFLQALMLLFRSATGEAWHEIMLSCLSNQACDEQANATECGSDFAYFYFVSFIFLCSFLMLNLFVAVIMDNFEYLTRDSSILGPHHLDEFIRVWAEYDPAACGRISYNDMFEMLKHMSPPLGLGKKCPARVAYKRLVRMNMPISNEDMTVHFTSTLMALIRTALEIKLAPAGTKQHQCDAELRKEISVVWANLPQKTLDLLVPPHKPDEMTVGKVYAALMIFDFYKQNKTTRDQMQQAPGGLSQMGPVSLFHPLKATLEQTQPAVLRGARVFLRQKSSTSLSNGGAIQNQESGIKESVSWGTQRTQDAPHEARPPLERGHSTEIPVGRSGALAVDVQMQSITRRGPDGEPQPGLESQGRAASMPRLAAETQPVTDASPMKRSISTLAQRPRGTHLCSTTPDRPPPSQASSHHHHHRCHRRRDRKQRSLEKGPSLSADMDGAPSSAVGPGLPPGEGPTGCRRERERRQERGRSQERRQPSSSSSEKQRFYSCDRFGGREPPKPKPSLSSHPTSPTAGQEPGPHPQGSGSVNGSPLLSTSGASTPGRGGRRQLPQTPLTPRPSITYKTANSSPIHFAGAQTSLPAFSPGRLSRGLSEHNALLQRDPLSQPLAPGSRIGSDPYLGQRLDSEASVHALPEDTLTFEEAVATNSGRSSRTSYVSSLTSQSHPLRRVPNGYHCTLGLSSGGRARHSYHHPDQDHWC
T2 sequence (Q02410 whole entry): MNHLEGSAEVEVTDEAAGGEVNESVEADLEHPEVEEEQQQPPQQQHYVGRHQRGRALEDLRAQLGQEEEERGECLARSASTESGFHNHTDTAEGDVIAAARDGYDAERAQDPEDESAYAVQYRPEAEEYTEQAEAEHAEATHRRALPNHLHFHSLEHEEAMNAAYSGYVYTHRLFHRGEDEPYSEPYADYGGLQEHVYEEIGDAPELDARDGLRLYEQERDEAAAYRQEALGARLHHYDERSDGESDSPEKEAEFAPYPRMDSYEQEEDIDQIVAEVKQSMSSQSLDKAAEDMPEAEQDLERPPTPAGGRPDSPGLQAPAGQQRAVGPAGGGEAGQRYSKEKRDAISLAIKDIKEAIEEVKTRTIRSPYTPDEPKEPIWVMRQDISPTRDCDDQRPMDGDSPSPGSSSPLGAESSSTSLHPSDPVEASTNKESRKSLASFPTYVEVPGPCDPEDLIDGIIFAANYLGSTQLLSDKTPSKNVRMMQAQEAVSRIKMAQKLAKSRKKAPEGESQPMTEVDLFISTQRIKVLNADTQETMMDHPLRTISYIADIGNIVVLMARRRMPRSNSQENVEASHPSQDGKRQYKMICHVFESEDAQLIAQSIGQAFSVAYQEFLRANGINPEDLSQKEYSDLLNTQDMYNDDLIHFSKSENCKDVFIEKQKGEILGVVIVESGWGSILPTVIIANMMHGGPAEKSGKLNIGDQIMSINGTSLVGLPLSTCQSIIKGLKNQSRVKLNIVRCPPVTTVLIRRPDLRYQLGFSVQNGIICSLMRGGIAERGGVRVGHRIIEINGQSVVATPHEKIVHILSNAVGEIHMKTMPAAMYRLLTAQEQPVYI

Caspase-6 = biological target: T3, Caspase-6 (Homo sapiens, UniProt P55212); experiment: human caspase-6 inhibitors, dose response, biochemical, VEID-R110 fluorescence, cherry-pick (AID 720632)
T3 sequence (P55212 whole entry): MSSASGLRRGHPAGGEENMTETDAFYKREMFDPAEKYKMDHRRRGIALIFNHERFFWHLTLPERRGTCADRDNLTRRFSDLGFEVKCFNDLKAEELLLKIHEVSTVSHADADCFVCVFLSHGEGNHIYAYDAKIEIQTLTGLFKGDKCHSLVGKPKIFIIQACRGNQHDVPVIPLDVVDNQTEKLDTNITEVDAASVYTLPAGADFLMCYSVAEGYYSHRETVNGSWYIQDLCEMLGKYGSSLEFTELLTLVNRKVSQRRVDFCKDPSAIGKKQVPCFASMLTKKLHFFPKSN

HEK293 [21] = experiment: inhibitors of LMP1-driven NF-kB reporter, dose response, cell-based, HEK293, luciferase, cherry-pick (AID 588343); assay type: functional; settings: Homo sapiens
[22] = LGR2 antagonists, dose response, cell-based, HEK293, CRE-luciferase reporter, cherry pick, set 2 (AID 743343); assay type: functional;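 further: transfected cells were stimulated with diluted bursicon conditioned medium after compound addition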
[23] = biological target: Beta-adrenergic receptor kinase 1 (Homo sapiens, UniProt P25098); experiment: aptamer displacement from bead-bound GRK2 – biochemical, cherry pick 1, bead flow cytometry, dose response (AID 504500)
[24] = biological target: Histone-lysine N-methyltransferase NSD2 (Homo sapiens, UniProt O96028); assay type: biochemical
[25] = biological target: T4, Bifunctional protein GlmU (Mycobacterium tuberculosis, UniProt P9WMN3); experiment: Inhibitors of Mycobacterial Glucosamine-1-phosphate acetyl transferase (GlmU). Secondary screen.; design: species or system Mycobacterium tuberculosis H37Rv
T4 sequence (P9WMN3 whole entry): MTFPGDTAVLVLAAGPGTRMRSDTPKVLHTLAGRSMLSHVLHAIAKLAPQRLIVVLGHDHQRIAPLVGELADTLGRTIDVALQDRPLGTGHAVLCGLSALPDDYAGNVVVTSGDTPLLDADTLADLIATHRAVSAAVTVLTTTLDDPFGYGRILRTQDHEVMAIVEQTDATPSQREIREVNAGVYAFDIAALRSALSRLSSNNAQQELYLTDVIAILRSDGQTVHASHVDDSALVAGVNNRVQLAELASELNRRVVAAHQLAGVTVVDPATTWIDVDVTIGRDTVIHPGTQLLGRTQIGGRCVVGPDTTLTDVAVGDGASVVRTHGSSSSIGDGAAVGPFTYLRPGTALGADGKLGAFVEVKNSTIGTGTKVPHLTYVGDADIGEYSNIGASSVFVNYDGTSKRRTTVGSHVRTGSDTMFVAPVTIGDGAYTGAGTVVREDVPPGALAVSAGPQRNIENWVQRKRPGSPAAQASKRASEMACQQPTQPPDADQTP

[26] = biological target: T2, Voltage-gated N-type calcium channel alpha-1B subunit/Amyloid beta A4 precursor protein-binding family A member 1; assay type: protein assay; remark: listed apart in the source
[27] = HeLa cell cytotoxicity, dose response, cytotoxicity control for MgcRacGAP inhibitor project (AID 624300); assay type: functional
[28] = biological target: Glutathione-S-transferase (Schistosoma japonicum, UniProt Q26513); experiment: biotin-GST/anti-GST TR-FRET signal inhibitors, dose response, artefact control for Vif-APOBEC3G degradation inhibitor project, biochemical (AID 1117362); assay type: functional
Glutathione-S-transferase, sequence (Q26513 whole entry): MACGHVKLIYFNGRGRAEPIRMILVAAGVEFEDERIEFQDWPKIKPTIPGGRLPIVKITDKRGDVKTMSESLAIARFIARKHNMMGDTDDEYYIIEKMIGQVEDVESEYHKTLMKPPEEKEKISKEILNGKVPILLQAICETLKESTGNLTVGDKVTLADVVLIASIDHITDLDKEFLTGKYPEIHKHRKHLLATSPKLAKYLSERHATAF

[29] = biological target: Delta-type opioid receptor (Homo sapiens, UniProt P41143); experiment: Counterscreen for agonists of heterodimerization of the mu 1 (OPRM1) and delta 1 (OPRD1) opioid receptors: Luminescence-based cell-based high throughput dose response assay to identify agonists of OPRD1 homodimerization. [Related pubchem assays (depositor defined):AID504326, AID504355, AID504692, AID504904, AID504905]; assay type: functional
Nonstructural protein 1 = Nonstructural protein 1 (Influenza A virus, UniProt Q194T2); assay type: functional, Influenza A virus (A/California/07/2009(H1N1))
Nonstructural protein 1, sequence (Q194T2 whole entry): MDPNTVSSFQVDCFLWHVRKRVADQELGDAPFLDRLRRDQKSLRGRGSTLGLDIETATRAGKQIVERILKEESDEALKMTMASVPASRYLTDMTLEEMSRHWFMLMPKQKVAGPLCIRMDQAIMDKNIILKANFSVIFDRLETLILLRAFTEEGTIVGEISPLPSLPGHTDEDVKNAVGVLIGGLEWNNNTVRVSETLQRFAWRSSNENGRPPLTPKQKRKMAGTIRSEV

Mu-type opioid receptor = Mu-type opioid receptor (Homo sapiens, UniProt P35372); experiment: Counterscreen for agonists of heterodimerization of the mu 1 (OPRM1) and delta 1 (OPRD1) opioid receptors: Luminescence-based cell-based high throughput dose response assay to identify agonists of OPRM1 homodimerization.; assay type: functional;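 further: U2OS cells expressing OPRM1 and beta-arrestin as split beta-galactosidase partners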
[30] = biological target: 5-hydroxytryptamine receptor 5A (Homo sapiens, UniProt P47898); experiment: Counterscreen for agonists of OPRM1-OPRD1 heterodimerization: luminescence-based cell-based high throughput dose response assay to identify agonists of 5-hydroxytryptamine (serotonin) 5A receptor (HTR5A). [Related pubchem assays (depositor defined):AID504326, AID504355, AID504692, AID504904, AID504905]; assay type: functional
5-hydroxytryptamine receptor 5A, sequence (P47898 whole entry): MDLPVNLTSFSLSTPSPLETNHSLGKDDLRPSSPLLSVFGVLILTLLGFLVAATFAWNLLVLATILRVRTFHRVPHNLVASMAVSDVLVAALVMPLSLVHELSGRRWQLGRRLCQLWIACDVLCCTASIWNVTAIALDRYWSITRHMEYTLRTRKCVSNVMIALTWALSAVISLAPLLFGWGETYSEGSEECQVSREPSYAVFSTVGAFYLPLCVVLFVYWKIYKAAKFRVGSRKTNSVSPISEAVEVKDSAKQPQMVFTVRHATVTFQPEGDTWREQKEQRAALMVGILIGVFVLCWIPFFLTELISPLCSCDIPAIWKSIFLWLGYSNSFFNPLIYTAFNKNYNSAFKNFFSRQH

[31] = THP-1 cell cytotoxicity, dose response, cytotoxicity control for Vif-APOBEC3G degradation inhibitor project, THP-1 cells (AID 1117359); assay type: functional; settings: Human immunodeficiency virus 1, THP-1
[32] = biological target: T5, Rac GTPase-activating protein 1 (Homo sapiens, UniProt Q9H0H5); experiment: MgcRacGAP GTPase-activating activity inhibitors, confirmation, biochemical, ADP Hunter fluorescence, primary and confirmatory (AID 624330); assay type: functional
T5 sequence (Q9H0H5 whole entry): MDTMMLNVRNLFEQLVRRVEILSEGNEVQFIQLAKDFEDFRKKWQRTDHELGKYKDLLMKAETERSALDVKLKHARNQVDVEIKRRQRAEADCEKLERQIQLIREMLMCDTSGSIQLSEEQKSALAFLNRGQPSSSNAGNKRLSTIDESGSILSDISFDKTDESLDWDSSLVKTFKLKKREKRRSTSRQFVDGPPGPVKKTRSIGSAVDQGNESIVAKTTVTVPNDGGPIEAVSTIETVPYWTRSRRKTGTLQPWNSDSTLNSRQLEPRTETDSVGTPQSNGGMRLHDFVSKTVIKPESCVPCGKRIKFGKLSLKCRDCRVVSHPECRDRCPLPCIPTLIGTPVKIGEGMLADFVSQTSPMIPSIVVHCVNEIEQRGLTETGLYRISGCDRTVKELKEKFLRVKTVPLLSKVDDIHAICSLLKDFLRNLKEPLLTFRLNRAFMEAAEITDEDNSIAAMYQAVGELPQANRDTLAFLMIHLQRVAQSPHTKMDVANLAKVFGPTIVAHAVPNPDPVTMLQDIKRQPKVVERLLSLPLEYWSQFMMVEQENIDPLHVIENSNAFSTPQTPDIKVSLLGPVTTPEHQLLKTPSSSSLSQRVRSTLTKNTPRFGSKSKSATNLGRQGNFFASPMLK

HEK293 [33] = experiment: cytotoxicity in HEK293T NF-kB-Luc cells, SAR follow-up, cytotoxicity control for NF-kB activator project, cell-based, resazurin fluorescence (AID 493251); assay type: functional; settings: Homo sapiens

CC1=C(C(=O)Nc2ccc(C(=O)N3CCN(c4ccccc4F)CC3)cc2)SCCO1
EC50 [1]: 3.01 µM (active)

CCCC(=O)Nc1ncnc2c1ncn2[C@@H]1O[C@@H]2OP(=O)(O)OC[C@H]2[C@H]1OC(=O)CCC
EC50 [2]: 9.1 µM (active) | EC50 [3]: 6.7 µM (active)

CC1CCN(c2ccc(-c3cccc(NC(=O)C(F)(F)F)c3)nn2)CC1
AC50 [4]: 2.74 µM (active) | AC50 [5]: 44.1 µM (active) | AC50 [6]: 11.5 µM (active) | AC50 (Paired box protein Pax-8): 3.37 µM (active) | AC50 [7]: 3.1 µM (active) | AC50 [8]: 4.11 µM (active) | AC50 [9]: 36.5 µM (active) | EC50 [10]: 0.475 µM (inconclusive) | AC50 [11]: 29.2 µM (active) | EC50 [12]: 8.19 µM (active) | IC50 [13]: 8.01 µM (active) | EC50 [14]: 5.09 µM (inconclusive) | AC50 [15]: 2.55 µM (active) | EC50 [16]: < 0.16 µM (active) | AC50 [17]: 32 µM (active) | AC50 [18]: 32.2 µM (active)

O=C(O)c1c2c(nc3ccccc13)/C(=C/c1ccc(O)cc1)CC2
AC50 [19]: 6.44 µM (active) | IC50 [20]: 18.4 µM (active) | AC50 (Caspase-6): 2 µM (active) | AC50 (HEK293 [21]): 1.93 µM (active) | AC50 [22]: 6.42 µM (active) | EC50 [23]: 33.3 µM (inactive) | AC50 [24]: 9.03 µM (active) | IC50 [25]: 124 µM (active) | IC50 [26]: 3.85 µM (active)

CCN(CC)Cc1cc(Nc2c3ccccc3nc3c4ccccc4n(C)c23)cc(CN(CC)CC)c1O
CC50 [27]: 80 µM (active) | IC50 [28]: 59.5 µM (active) | EC50 [29]: 1.49 µM (active) | IC50 (Nonstructural protein 1): 17.9 µM (active) | EC50 (Mu-type opioid receptor): > 92.6 µM (inactive) | EC50 [30]: > 92.6 µM (inactive) | CC50 [31]: 11 µM (active) | IC50 [32]: 22.1 µM (active)

Cc1oc(-c2ccccc2)nc1CSCC(=O)NC1CC1
IC50 (HEK293 [33]): > 80 µM (inactive)
